From US20050175535A1 (CV Therapeutics, Inc., priority 2000, published 2005)
Like-named read-outs stand apart in the source and are kept apart here.

Assays:
A2A adenosine receptors = A2A adenosine receptors (Sus scrofa, UniProt K9IW67); test: Competitive radioligand binding, [3H]ZM241385, pig striatum membranes; settings: [3H]ZM241385, Gpp(NH)p present
Experimental: Membranes were also obtained from porcine striatial cells as follows. […] The homogenate was filtered through cotton gauze and centrifuged at 48,000g for 15 minutes at 4° C. […] The final pellet was frozen at −80° C. until used for receptor binding assays.

[1] = system: rat isolated perfused heart; test: Reversal time of coronary vasodilation in rat isolated perfused hearts; settings: bolus, rat isolated perfused heart;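 note: each agonist bolused at its minimal concentration giving equal maximal coronary conductance rise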
Experimental: FIG. 10. Reversal of effect of agonist stimulation on CC. […] CC was measured at 8, 16 and 24 minutes after administration (FIG. 10A). […] R and N are the correlation coefficient and number of agonists, respectively.
The relationship between the affinity of agonists for the A2A receptor and the rate of reversal of agonist-mediated responses (coronary vasodilation in heart and cAMP accumulation in PC12 cells) upon termination of drug administration were determined. […] The duration of the coronary vasodilation in isolated rat hearts caused by adenosine, the CVT compounds, and other agonists measured as the time to 50% and 90% (t0.5 and t0.9, respectively) reversal of the increases in coronary conductance after termination of drug administration are summarized in Table 4.

[2] = Coronary blood flow and reversal time, intracoronary infusion in open-chest anesthetized pigs; type: in vivo
Experimental: The magnitude of the effect of A2A adenosine receptor agonists on coronary dilation and the duration of the effect was determined in pigs weighing 22-27 kg. […] In addition, animals were used in accordance with the guidelines of the University of Kentucky Institutional Animal Care and Use Protocol.
Anesthesia was maintained with additional sodium pentobarbital (1.5-2 mg/kg, i.v.) every 15-20 minutes. Animals were ventilated via a tracheotomy tube using a mixture of room air and 100% O2. Tidal volume, respiratory rate and fraction of O2 in inspired air were adjusted to maintain arterial blood gas (ABG) and pH values. […] Lactate Ringers solution was administered via an ear or femoral vein as an initial bolus of 300-400 ml followed by a continuous infusion at a rate of 5-7 ml/kg/hr. A catheter was inserted into the femoral artery to monitor arterial blood pressure.
The heart was exposed through a median sternotomy and suspended in a pericardial cradle. Left ventricular pressure (LVP) was measured with a 5F high fidelity pressure sensitive tip transducer (Millar Instruments, Houston, Tex.) placed in the left ventricular cavity via an apical incision and secured with a purse string suture. A segment of the left anterior descending coronary artery (LAD), proximal to the origin of the first diagonal branch, was dissected free of surrounding tissue. A transit time perivascular flow probe (Transonic Systems Inc., Ithaca, N.Y.) was placed around this segment to measure CBF. Proximal to the flow probe, a 24-gauge modified angiocatheter was inserted for intracoronary infusions. […] The A2A adenosine receptors agonists were administered intracoronary.
Relationship between affinity of various agonists for A2A adenosine receptor and the reversal time of their effect to increase coronary conductance was determined in pigs. Each experiment was preceded by a 30-minute stabilization period following the completion of all instrumentation of the animal. Baseline hemodynamic data were then recorded and an intracoronary infusion of an A2A Adenosine receptors agonist was initiated. Each infusion was maintained for 4-5 minutes to allow LAD CBF to reach a steady-state, after which the infusion was terminated. The times to recovery of CBF by 50% (t0.5) and 90% (t0.9) of the difference from peak effect to baseline CBF were recorded. Ten to 15 minutes after CBF returned to pre-drug values a second infusion with a different agonist was started. […] Hemodynamic measurements were made prior to and following the initiation of the phenylephrine infusion. The phenylephrine infusion rate was adjusted during and following the infusions of the adenosine receptor agonists to maintain arterial blood pressure within 5 mmHg of pre-infusion values. The effect of a maximum of three different agonists was determined in each experiment.

[3] = system: rat isolated perfused heart; test: Coronary conductance / coronary perfusion pressure in isolated perfused rat hearts; settings: for EC50: Rattus norvegicus
Experimental: Briefly, rats of either sex weighing 230-260 grams were anesthetized by intraperitoneal injection of a mixture of ketamine (100 mg/ml) and xylazine (20 mg/ml). The chest of each rat was opened and the heart removed, and rinsed in ice-cold modified Krebs-Henseleit (K-H) solution containing NaCl 117.9, KCl 4.5, CaCl2 2.5, MgSO4 1.18, KH2PO4 1.18, pyruvate 2.0 mmo/L. The aorta was cannulated and the heart was perfused at a flow rate of 10 ml/min with modified K-H solution. The K-H solution (pH 7.4) was gassed continuously with 95% O2 and 5% CO2 and warmed to 35±0.5° C. The heart was electrically paced at a fixed cycle length of 240 ms (250 beats/min) using a bipolar electrode placed in the left atrium. The electrical stimuli were generated by a Grass stimulator (Model S48, W. Warwick, R.I.) and delivered through a Stimuli Isolation Unit (Model SIU5, Astro-Med, Inc., NY) as square-wave pulses of 3-msec in duration and with an amplitude of at least twice the threshold intensity.
The identity of the adenosine receptor subtype (A1 or A2A) mediating the coronary vasodilation was determined.
Coronary perfusion pressure (CPP) was measured using a pressure transducer that was connected to the aortic cannula via a T-connector positioned approximately 3 cm above the heart. CPP was monitored throughout an experiment and recorded either on a chart recorder (Gould Recorder 2200S, Valley View, Ohio) or a computerized recording system (PowerLab/4S, ADInstruments Pty Ltd, Australia). Only hearts with CPP ranging from 60 to 85 mmHg (in the absence of drugs) were used in the study. CC conductance (in ml/min/mmHg) was calculated as the ratio between coronary perfusion rate (10 ml/min) and CPP.

[4] = molecular target: T1, human A1 adenosine receptors (Homo sapiens, UniProt P30542); test: Competitive radioligand binding, [3H]CPX, CHO-hA1AdoR membranes; settings: in words
T1 construct: expressed in transfected cells
T1 sequence (P30542 1-326): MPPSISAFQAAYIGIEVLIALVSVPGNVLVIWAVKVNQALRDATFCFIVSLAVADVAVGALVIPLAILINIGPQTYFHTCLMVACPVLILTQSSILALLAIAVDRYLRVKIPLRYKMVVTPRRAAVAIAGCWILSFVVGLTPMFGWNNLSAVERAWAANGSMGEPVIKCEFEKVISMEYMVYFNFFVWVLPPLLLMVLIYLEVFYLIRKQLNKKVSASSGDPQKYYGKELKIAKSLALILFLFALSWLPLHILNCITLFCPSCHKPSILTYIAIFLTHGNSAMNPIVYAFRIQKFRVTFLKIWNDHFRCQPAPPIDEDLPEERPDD
Experimental: The cell suspensions were homogenized and centrifuged at 48,000g for 15 minutes. The pellets were washed three times by re-suspension in ice-cold Tris-HCl buffer and centrifugation. The final pellet was re-suspended in Tris-HCl, aliquoted and frozen at −80° C. until used for receptor binding assays.

[5] = read-out: Ki, Pig Strialum (A2A)
[6] = read-out: pKi ± SEM, Pig Strialum (A2A) (converted)

Chain of A2A adenosine receptors (K9IW67 1-409): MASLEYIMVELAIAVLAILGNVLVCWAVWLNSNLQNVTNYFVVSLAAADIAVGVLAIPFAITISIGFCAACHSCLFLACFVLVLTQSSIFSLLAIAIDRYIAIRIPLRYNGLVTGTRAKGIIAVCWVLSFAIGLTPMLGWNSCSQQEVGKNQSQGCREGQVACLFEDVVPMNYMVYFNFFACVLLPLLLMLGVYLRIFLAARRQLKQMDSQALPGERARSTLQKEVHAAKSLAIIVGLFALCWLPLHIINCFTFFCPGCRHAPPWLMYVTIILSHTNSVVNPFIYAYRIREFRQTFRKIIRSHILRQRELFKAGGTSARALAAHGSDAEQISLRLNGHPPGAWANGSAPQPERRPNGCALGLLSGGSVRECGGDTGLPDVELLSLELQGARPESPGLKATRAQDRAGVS

In the case of `Cc1ccc(-c2cnn(-c3nc(N)c4ncn([C@@H]5O[C@H](CO)[C@@H](O)[C@H]5O)c4n3)c2)cc1`, the Ki (A2A adenosine receptors; [5]) is reported as 502 nM, the Ki (A2A adenosine receptors; [6]) is reported as 490 nM and the “t0.5, time to 50% reversal of the increase in coronary conductance” value [1] is reported as 13.6 ± 1.3 min. The “t0.9, time to 90% reversal of the increase in coronary conductance” value [1] was 18.9 ± 1.9 min.
For `CCNC(=O)[C@H]1O[C@@H](n2cnc3c(N)nc(NCCc4ccc(CCC(=O)O)cc4)nc32)[C@H](O)[C@@H]1O` [CGS21680, 2-p-(2-carboxy-ethyl) phenethyl-amino-5′-N-ethylcarboxamido-adenosine, reference compound], the “t0.5 reversal of increase in coronary blood flow” value ([2]; 2 ug/kg/min intracoronary) was 9.7 ± 0.8 min, the “t0.9 reversal of increase in coronary blood flow” value ([2]; 2 ug/kg/min intracoronary) was 21.4 ± 0.8 min and the “decrease in coronary perfusion pressure” value ([3]; 100 nM, isolated rat heart) was 23 mmHg. For the same compound, the EC50 ([3]; read-out: EC50, Coronary Conductance (Rat Isolated Heart)) was 0.54 nM, the EC50 ([3]; read-out: pEC50 ± SEM, Coronary Conductance (Rat Isolated Heart) (converted)) was 0.537 nM and the “effect on coronary conductance” value ([3]; isolated rat hearts, in words) was “concentration-dependent increases in coronary conductance”. The “affinity for the A1 receptor expressed by CHO-K1 cells” value [4] was “relatively low affinities”.
For `Nc1nc(-c2cccs2)nc2c1ncn2[C@@H]1O[C@H](CO)[C@@H](O)[C@H]1O` [CVT-3003, (4S,2R,3R,5R)-2-(6-amino-2-(2-thienyl)pruin-9-yl)-5-(hydroxymethyl)oxolane-3,4-diol], the Ki (A2A adenosine receptors; [5]) was 1010 nM, the “t0.5, time to 50% reversal of the increase in coronary conductance” value [1] was 3.4 ± 0.1 min and the “t0.9, time to 90% reversal of the increase in coronary conductance” value [1] was 9.2 ± 2.2 min.
For `Nc1nc(C#CCOc2ccccc2Cc2ccccc2)nc2c1ncn2[C@@H]1O[C@H](CO)[C@@H](O)[C@H]1O` [CVT-3006, (4S,2R,3R,5R)-2-(6-amino-2-{3-[2-benzylphenoxy]prop-1-ynyl}purin-9-yl)-5-(hydroxymethyl)oxolane-3,4-diol], the Ki (A2A adenosine receptors; [5]) was 64 nM, the Ki (A2A adenosine receptors; [6]) was 57.5 nM and the “t0.5, time to 50% reversal of the increase in coronary conductance” value [1] was 16.1 ± 0.1 min. For the same compound, the “t0.9, time to 90% reversal of the increase in coronary conductance” value [1] was 21.8 ± 2.0 min.
In the case of `Cc1ccc(-c2nc(N)c3ncn([C@@H]4O[C@H](CO)[C@@H](O)[C@H]4O)c3n2)s1` [CVT-3100], the Ki (A2A adenosine receptors; [5]) is reported as 697 nM, the “t0.5, time to 50% reversal of the increase in coronary conductance” value [1] is reported as 5.1 ± 0.6 min and the “t0.9, time to 90% reversal of the increase in coronary conductance” value [1] is reported as 10.1 ± 0.2 min.
In the case of `N#Cc1ccc(OCC#Cc2nc(N)c3ncn([C@@H]4O[C@H](CO)[C@@H](O)[C@H]4O)c3n2)cc1` [CVT-3101, 4-(3-{9-[(4S,2R,3R,5R)-3,4-dihydroxy-5-(hydroxymethyl)oxolan-2-yl]-6-aminopurin-2-yl}prop-2-ynyloxy)benzenecarbonitrile], the Ki (A2A adenosine receptors; [5]) is reported as 94 nM, the “t0.5, time to 50% reversal of the increase in coronary conductance” value [1] is reported as 16.7 ± 0.5 min and the “t0.9, time to 90% reversal of the increase in coronary conductance” value [1] is reported as 25.6 ± 0.3 min.
With `Nc1nc(-c2cnn(CCCc3ccccc3)c2)nc2c1ncn2[C@@H]1O[C@H](CO)[C@@H](O)[C@H]1O` [CVT-3126, (4S,2R,3R,5R)-2-{6-amino-2-[1-(3-phenylpropyl)pyrazol-4-yl]purin-9-yl}-5-(hydroxymethyl)oxolane-3,4-diol] the Ki (A2A adenosine receptors; [5]) was 1670 nM, the “t0.5, time to 50% reversal of the increase in coronary conductance” value [1] was 8.3 ± 0.4 min and the “t0.9, time to 90% reversal of the increase in coronary conductance” value [1] was 12.6 ± 0.3 min.
With `CCOC(=O)c1cnn(-c2nc(N)c3ncn([C@@H]4O[C@H](CO)[C@@H](O)[C@H]4O)c3n2)c1` [CVT-3127, ethyl 1-{9-[(4S,2R,3R,5R)-3,4-dihydroxy-5-(hydromethyl)oxolan-2-yl]-6-aminopurin-2-yl}pyrazole-4-carboxylate] the Ki (A2A adenosine receptors; [5]) was 64 nM, the Ki (A2A adenosine receptors; [6]) was 60.3 nM and the “t0.5, time to 50% reversal of the increase in coronary conductance” value [1] was 14.8 ± 2.1 min. For the same compound, the “t0.9, time to 90% reversal of the increase in coronary conductance” value [1] was 15.0 ± 0.8 min.
With `Nc1nc(-n2cc(-c3ccc(Cl)cc3)cn2)nc2c1ncn2[C@@H]1O[C@H](CO)[C@@H](O)[C@H]1O` [CVT-3141, (4S,2R,3R,5R)-2-{6-amino-2-[4-(4-chlorophenyl)pyrazole]purin-9-yl}-5-(hydroxymethyl)oxolane-3,4-diol] the “t0.5, time to 50% reversal of the increase in coronary conductance” value [1] was 14.4 ± 1.9 min and the “t0.9, time to 90% reversal of the increase in coronary conductance” value [1] was 21.3 ± 3.9 min.
With `CCCCC#Cc1nc(N)c2ncn([C@@H]3O[C@H](C(=O)NCC)[C@@H](O)[C@H]3O)c2n1` [HENECA, 2-hexynyladenosine-5′-N-ethyl-, reference compound] the “pKi ± SEM, Pig Strialum (A2A)” value (A2A adenosine receptors) was 8.10 ± 0.08, the Ki (A2A adenosine receptors; [5]) was 7.96 nM and the “t0.5, time to 50% reversal of the increase in coronary conductance” value [1] was 28.6 ± 1.1 min. The “t0.9, time to 90% reversal of the increase in coronary conductance” value [1] was 32.8 ± 3.1 min.
For `C[C@H](Cc1ccccc1)Nc1ncnc2c1ncn2[C@@H]1O[C@H](CO)[C@@H](O)[C@H]1O` [R-PIA, Phenylisopropyladenosine, reference compound], the “pKi ± SEM, Pig Strialum (A2A)” value (A2A adenosine receptors) was 5.96 ± 0.06 and the Ki (A2A adenosine receptors; [5]) was 1110 nM.
For `CCCCCCC#Cc1nc(N)c2ncn([C@@H]3O[C@H](CO)[C@@H](O)[C@H]3O)c2n1` [YT-146, reference compound], the “CBF (fold-increase)” value ([2]; 1 ug/kg/min intracoronary) was 3.44 ± 0.47 fold, the “t0.5 reversal of increase in coronary blood flow” value ([2]; 1 ug/kg/min intracoronary) was 17.8 ± 3.4 min and the “t0.9 reversal of increase in coronary blood flow” value ([2]; 1 ug/kg/min intracoronary) was 32.9 ± 5.6 min. The “pKi ± SEM, Pig Strialum (A2A)” value (A2A adenosine receptors) was 7.86 ± 0.33, the Ki (A2A adenosine receptors; [5]) was 16.3 nM and the “t0.5, time to 50% reversal of the increase in coronary conductance” value [1] was 17.7 ± 1.0 min. The “t0.9, time to 90% reversal of the increase in coronary conductance” value [1] was 25.8 ± 4.0 min.
